Measurements from patent US12723063B2, “GIPR-agonist compounds” (Eli Lilly and Company, priority 2019, dated 2026).
*1 amine or outer side, *2 acyl side, *3 side chain or, on linkers, in order; H or OH if unused. Where a SMILES comes first, the peptide text is derived from it. Side-chain parts run from the residue outwards. [ ]: non-standard residue; d: D form. The star is where a group is joined. C20 diacid = O=C(O)CCCCCCCCCCCCCCCCCCC(=O)*; γGlu = O=C(O)[C@H](CCC(=O)[*:2])N[*:1]; 4Pal = N[C@@H](Cc1ccncc1)C(=O)O; αMeL = CC(C)C[C@](C)(N)C(=O)O; Orn = NCCC[C@H](N)C(=O)O; AEEA = NCCOCCOCC(=O)O; Aib = CC(C)(N)C(=O)O

Assays:
[1] = target: T1, human glucagon receptor (GcgR) (Homo sapiens, UniProt P47871); experiment: cAMP functional assay (HTRF) in HEK293 cells in presence of 0.1% casein; format: cell-based; details: HEK293 cells expressing human GcgR, geometric mean, read-out: hGcgR cAMP Rel EC50 nM (SEM, n)
T1 construct: expressed in transfected cells; host or cells: HEK293
T1 sequence (P47871 26-477): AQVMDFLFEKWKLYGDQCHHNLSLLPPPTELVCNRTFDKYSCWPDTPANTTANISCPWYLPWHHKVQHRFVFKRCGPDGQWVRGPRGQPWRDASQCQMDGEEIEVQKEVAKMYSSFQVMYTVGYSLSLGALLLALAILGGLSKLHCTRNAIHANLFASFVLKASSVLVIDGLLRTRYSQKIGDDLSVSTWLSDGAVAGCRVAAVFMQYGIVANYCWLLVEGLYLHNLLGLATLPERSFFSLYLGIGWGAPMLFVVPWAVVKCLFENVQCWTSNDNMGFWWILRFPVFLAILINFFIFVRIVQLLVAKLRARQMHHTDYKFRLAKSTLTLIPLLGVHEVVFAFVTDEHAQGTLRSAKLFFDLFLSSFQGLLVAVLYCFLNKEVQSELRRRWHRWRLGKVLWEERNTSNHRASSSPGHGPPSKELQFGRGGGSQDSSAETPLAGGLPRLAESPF

[2] = target: T2, human glucose-dependent insulinotropic peptide receptor (GIPR) (Homo sapiens, UniProt P48546); experiment: as above; format: cell-based; details: HEK293 cells expressing human GIPR, geometric mean, read-out: hGIPR cAMP Rel EC50 nM (SEM, n)
T2 construct: expressed in transfected cells; host or cells: HEK293
T2 sequence (P48546 22-466): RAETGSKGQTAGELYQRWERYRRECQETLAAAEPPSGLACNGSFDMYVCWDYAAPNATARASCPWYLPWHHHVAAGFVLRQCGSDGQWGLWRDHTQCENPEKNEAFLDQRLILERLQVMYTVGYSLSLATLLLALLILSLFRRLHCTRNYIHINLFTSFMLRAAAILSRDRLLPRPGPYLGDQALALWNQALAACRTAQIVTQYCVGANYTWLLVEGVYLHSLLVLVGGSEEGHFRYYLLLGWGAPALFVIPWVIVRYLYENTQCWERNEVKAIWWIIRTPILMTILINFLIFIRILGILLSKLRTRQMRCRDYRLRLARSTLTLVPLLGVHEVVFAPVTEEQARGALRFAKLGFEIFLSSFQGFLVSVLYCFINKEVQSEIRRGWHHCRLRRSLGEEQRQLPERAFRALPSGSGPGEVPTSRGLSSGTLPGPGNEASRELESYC

Row | SMILES | EC50 [1] | EC50 [2]
1 | CC[C@H](C)[C@H](NC(=O)[C@H](Cc1ccccc1)NC(=O)[C@@H](NC(=O)CNC(=O)[C@H](CCC(=O)O)NC(=O)C(C)(C)NC(=O)[C@@H](N)Cc1ccc(O)cc1)[C@@H](C)O)C(=O)N[C@@H](CO)C(=O)N[C@@H](CC(=O)O)C(=O)N[C@@H](Cc1ccc(O)cc1)C(=O)N[C@@H](CO)C(=O)N[C@H](C(=O)N[C@@](C)(CC(C)C)C(=O)N[C@@H](CC(C)C)C(=O)N[C@@H](CC(=O)O)C(=O)N[C@@H](CCCN)C(=O)N[C@@H](CCCCNC(=O)COCCOCCNC(=O)COCCOCCNC(=O)CC[C@H](NC(=O)CCCCCCCCCCCCCCCCCCC(=O)O)C(=O)O)C(=O)N[C@@H](Cc1c[nH]cn1)C(=O)N[C@@H](CCC(N)=O)C(=O)NC(C)(C)C(=O)N[C@@H](CC(=O)O)C(=O)N[C@@H](Cc1ccccc1)C(=O)N[C@H](C(=O)N[C@@H](CCC(=O)O)C(=O)N[C@@H](Cc1ccncc1)C(=O)N[C@@H](CC(C)C)C(=O)N[C@@H](CC(C)C)C(=O)N[C@@H](CCC(=O)O)C(=O)N[C@H](C(=O)NCC(=O)N1CCC[C@H]1C(=O)N[C@@H](CO)C(=O)N[C@@H](CO)C(=O)NCC(=O)N[C@@H](C)C(=O)N1CCC[C@H]1C(=O)N1CCC[C@H]1C(=O)N1CCC[C@H]1C(=O)N[C@@H](CO)C(N)=O)[C@@H](C)O)C(C)C)[C@@H](C)CC [Example 80] (H-Y[Aib]EGTFISDYSI[αMeL]LD[Orn]K([AEEA-AEEA-γGlu-C20 diacid])HQ[Aib]DFVE[4Pal]LLETGPSSGAPPPS-NH2) | > 5000 nM | 0.0777 nM
2 | CC[C@H](C)[C@H](NC(=O)[C@H](Cc1ccccc1)NC(=O)[C@@H](NC(=O)CNC(=O)[C@H](CCC(=O)O)NC(=O)C(C)(C)NC(=O)[C@@H](N)Cc1ccc(O)cc1)[C@@H](C)O)C(=O)N[C@@H](CO)C(=O)N[C@@H](CC(=O)O)C(=O)N[C@@H](Cc1ccc(O)cc1)C(=O)N[C@@H](CO)C(=O)N[C@H](C(=O)N[C@@](C)(CC(C)C)C(=O)N[C@@H](CC(C)C)C(=O)N[C@@H](CC(=O)O)C(=O)N[C@@H](CCCN)C(=O)N[C@@H](CCCCNC(=O)COCCOCCNC(=O)COCCOCCNC(=O)CC[C@H](NC(=O)CCCCCCCCCCCCCCCCCCC(=O)O)C(=O)O)C(=O)N[C@@H](Cc1c[nH]cn1)C(=O)N[C@@H](CCC(N)=O)C(=O)NC(C)(C)C(=O)N[C@@H](CC(=O)O)C(=O)N[C@@H](Cc1ccccc1)C(=O)N[C@H](C(=O)N[C@@H](CCC(=O)O)C(=O)N[C@@H](Cc1ccncc1)C(=O)N[C@@H](CC(C)C)C(=O)N[C@@H](CC(C)C)C(=O)N[C@@H](CCC(=O)O)C(=O)N[C@@H](CCC(N)=O)C(=O)NCC(=O)N1CCC[C@H]1C(=O)N[C@@H](CO)C(=O)N[C@@H](CO)C(=O)NCC(=O)N[C@@H](C)C(=O)N1CCC[C@H]1C(=O)N1CCC[C@H]1C(=O)N1CCC[C@H]1C(=O)N[C@@H](CO)C(N)=O)C(C)C)[C@@H](C)CC [Example 81] (H-Y[Aib]EGTFISDYSI[αMeL]LD[Orn]K([AEEA-AEEA-γGlu-C20 diacid])HQ[Aib]DFVE[4Pal]LLEQGPSSGAPPPS-NH2) | > 5000 nM | 0.0282 nM
3 | CC[C@H](C)[C@H](NC(=O)[C@H](Cc1ccccc1)NC(=O)[C@@H](NC(=O)CNC(=O)[C@H](CCC(=O)O)NC(=O)C(C)(C)NC(=O)[C@@H](N)Cc1ccc(O)cc1)[C@@H](C)O)C(=O)N[C@@H](CO)C(=O)N[C@@H](CC(=O)O)C(=O)N[C@@H](Cc1ccc(O)cc1)C(=O)N[C@@H](CO)C(=O)N[C@H](C(=O)N[C@@](C)(CC(C)C)C(=O)N[C@@H](CC(C)C)C(=O)N[C@@H](CC(=O)O)C(=O)N[C@@H](CCCN)C(=O)N[C@@H](CCCCNC(=O)COCCOCCNC(=O)COCCOCCNC(=O)CC[C@H](NC(=O)CCCCCCCCCCCCCCCCCCC(=O)O)C(=O)O)C(=O)N[C@@H](Cc1c[nH]cn1)C(=O)N[C@@H](CCC(N)=O)C(=O)NC(C)(C)C(=O)N[C@@H](CC(=O)O)C(=O)N[C@@H](Cc1ccccc1)C(=O)N[C@H](C(=O)N[C@@H](CCC(=O)O)C(=O)N[C@@H](Cc1ccncc1)C(=O)N[C@@H](CC(C)C)C(=O)N[C@@H](CC(C)C)C(=O)N[C@@H](CCC(=O)O)C(=O)NCC(=O)NCC(=O)N1CCC[C@H]1C(=O)N[C@@H](CO)C(=O)N[C@@H](CO)C(=O)NCC(=O)N[C@@H](C)C(=O)N1CCC[C@H]1C(=O)N1CCC[C@H]1C(=O)N1CCC[C@H]1C(=O)N[C@@H](CO)C(N)=O)C(C)C)[C@@H](C)CC [Example 82] (H-Y[Aib]EGTFISDYSI[αMeL]LD[Orn]K([AEEA-AEEA-γGlu-C20 diacid])HQ[Aib]DFVE[4Pal]LLEGGPSSGAPPPS-NH2) | 3790 nM | 0.0391 nM
4 | CC[C@H](C)[C@H](NC(=O)[C@H](Cc1ccccc1)NC(=O)[C@@H](NC(=O)CNC(=O)[C@H](CCC(=O)O)NC(=O)C(C)(C)NC(=O)[C@@H](N)Cc1ccc(O)cc1)[C@@H](C)O)C(=O)N[C@@H](CO)C(=O)N[C@@H](CC(=O)O)C(=O)N[C@@H](Cc1ccc(O)cc1)C(=O)N[C@@H](CO)C(=O)N[C@H](C(=O)N[C@@](C)(CC(C)C)C(=O)N[C@@H](CC(C)C)C(=O)N[C@@H](CC(=O)O)C(=O)N[C@@H](CCC(=O)O)C(=O)N[C@@H](CCCCNC(=O)COCCOCCNC(=O)COCCOCCNC(=O)CC[C@H](NC(=O)CCCCCCCCCCCCCCCCCCC(=O)O)C(=O)O)C(=O)N[C@@H](Cc1c[nH]cn1)C(=O)N[C@@H](CCC(N)=O)C(=O)NC(C)(C)C(=O)N[C@@H](CC(=O)O)C(=O)N[C@@H](Cc1ccccc1)C(=O)N[C@H](C(=O)N[C@@H](CCC(=O)O)C(=O)N[C@@H](Cc1ccncc1)C(=O)N[C@@H](CC(C)C)C(=O)N[C@@H](CC(C)C)C(=O)N[C@@H](C)C(=O)N[C@H](C(=O)NCC(=O)N1CCC[C@H]1C(=O)N[C@@H](CO)C(=O)N[C@@H](CO)C(=O)NCC(=O)N[C@@H](C)C(=O)N1CCC[C@H]1C(=O)N1CCC[C@H]1C(=O)N1CCC[C@H]1C(=O)N[C@@H](CO)C(N)=O)[C@@H](C)O)C(C)C)[C@@H](C)CC [Example 83] (H-Y[Aib]EGTFISDYSI[αMeL]LDEK([AEEA-AEEA-γGlu-C20 diacid])HQ[Aib]DFVE[4Pal]LLATGPSSGAPPPS-NH2) | > 5000 nM | 0.0432 nM
5 | CC[C@H](C)[C@H](NC(=O)[C@H](Cc1ccccc1)NC(=O)[C@@H](NC(=O)CNC(=O)[C@H](CCC(=O)O)NC(=O)C(C)(C)NC(=O)[C@@H](N)Cc1ccc(O)cc1)[C@@H](C)O)C(=O)N[C@@H](CO)C(=O)N[C@@H](CC(=O)O)C(=O)N[C@@H](Cc1ccc(O)cc1)C(=O)N[C@@H](CO)C(=O)N[C@H](C(=O)N[C@@](C)(CC(C)C)C(=O)N[C@@H](CC(C)C)C(=O)N[C@@H](CC(=O)O)C(=O)N[C@@H](CCC(=O)O)C(=O)N[C@@H](CCCCNC(=O)COCCOCCNC(=O)COCCOCCNC(=O)CC[C@H](NC(=O)CCCCCCCCCCCCCCCCCCC(=O)O)C(=O)O)C(=O)N[C@@H](Cc1c[nH]cn1)C(=O)N[C@@H](CCC(N)=O)C(=O)NC(C)(C)C(=O)N[C@@H](CC(=O)O)C(=O)N[C@@H](Cc1ccccc1)C(=O)N[C@H](C(=O)N[C@@H](CCC(=O)O)C(=O)N[C@@H](Cc1ccncc1)C(=O)N[C@@H](CC(C)C)C(=O)N[C@@H](CC(C)C)C(=O)N[C@@H](C)C(=O)N[C@@H](CCC(N)=O)C(=O)NCC(=O)N1CCC[C@H]1C(=O)N[C@@H](CO)C(=O)N[C@@H](CO)C(=O)NCC(=O)N[C@@H](C)C(=O)N1CCC[C@H]1C(=O)N1CCC[C@H]1C(=O)N1CCC[C@H]1C(=O)N[C@@H](CO)C(N)=O)C(C)C)[C@@H](C)CC [Example 84] (H-Y[Aib]EGTFISDYSI[αMeL]LDEK([AEEA-AEEA-γGlu-C20 diacid])HQ[Aib]DFVE[4Pal]LLAQGPSSGAPPPS-NH2) | > 5000 nM | 0.034 nM
6 | CC[C@H](C)[C@H](NC(=O)[C@H](Cc1ccccc1)NC(=O)[C@@H](NC(=O)CNC(=O)[C@H](CCC(=O)O)NC(=O)C(C)(C)NC(=O)[C@@H](N)Cc1ccc(O)cc1)[C@@H](C)O)C(=O)N[C@@H](CO)C(=O)N[C@@H](CC(=O)O)C(=O)N[C@@H](Cc1ccc(O)cc1)C(=O)N[C@@H](CO)C(=O)N[C@H](C(=O)N[C@@](C)(CC(C)C)C(=O)N[C@@H](CC(C)C)C(=O)N[C@@H](CC(=O)O)C(=O)N[C@@H](CCC(=O)O)C(=O)N[C@@H](CCCCNC(=O)COCCOCCNC(=O)COCCOCCNC(=O)CC[C@H](NC(=O)CCCCCCCCCCCCCCCCCCC(=O)O)C(=O)O)C(=O)N[C@@H](Cc1c[nH]cn1)C(=O)N[C@@H](CCC(N)=O)C(=O)NC(C)(C)C(=O)N[C@@H](CC(=O)O)C(=O)N[C@@H](Cc1ccccc1)C(=O)N[C@H](C(=O)N[C@@H](CCC(=O)O)C(=O)N[C@@H](Cc1ccncc1)C(=O)N[C@@H](CC(C)C)C(=O)N[C@@H](CC(C)C)C(=O)N[C@@H](C)C(=O)N[C@@H](C)C(=O)NCC(=O)N1CCC[C@H]1C(=O)N[C@@H](CO)C(=O)N[C@@H](CO)C(=O)NCC(=O)N[C@@H](C)C(=O)N1CCC[C@H]1C(=O)N1CCC[C@H]1C(=O)N1CCC[C@H]1C(=O)N[C@@H](CO)C(N)=O)C(C)C)[C@@H](C)CC [Example 85] | > 5000 nM | 0.0359 nM
